The subject of experiment [1] is Cellular Release of Amyloid Peptide 1-40. The experiment is described as follows: Test 4: Inhibition of Cellular Release of Amyloid Peptide 1-40. The class given is cell-based, Chinese hamster. The settings on record: Cricetulus griseus, 24 h; read-out: Amyloid-β1-40 release IC50. How it is done:
Chinese hamster ovary cells are transfected with the human gene for amyloid precursor protein. The cells are plated at a density of 8000 cells/well into 96-well microtiter plates and cultivated for 24 hours in DMEM cell culture medium containing 10% FCS. The test compound is added to the cells at various concentrations, and the cells are cultivated for 24 hours in the presence of the test compound. […] The potency of the compound is calculated from the percentage of inhibition of amyloid peptide release as a function of the test compound concentration.

Experiment [2] addresses Human BACE-1 (Homo sapiens, UniProt P56817). The experiment is described as follows: Test 1: Inhibition of Human BACE-1. In kind it is biochemical. The settings on record: mean IC50 values in Test 1; recombinant BACE-1, pH 4.5. How it is done:
Test 1: Inhibition of Human BACE-1
IC50 values are calculated from percentage of inhibition of BACE-1 activity as a function of the test compound concentration.

pIC50: −log10 of the molar value. Counter-ions that a name gives are not always drawn.

Chain of Human BACE-1 (P56817 46-457 limits assumed): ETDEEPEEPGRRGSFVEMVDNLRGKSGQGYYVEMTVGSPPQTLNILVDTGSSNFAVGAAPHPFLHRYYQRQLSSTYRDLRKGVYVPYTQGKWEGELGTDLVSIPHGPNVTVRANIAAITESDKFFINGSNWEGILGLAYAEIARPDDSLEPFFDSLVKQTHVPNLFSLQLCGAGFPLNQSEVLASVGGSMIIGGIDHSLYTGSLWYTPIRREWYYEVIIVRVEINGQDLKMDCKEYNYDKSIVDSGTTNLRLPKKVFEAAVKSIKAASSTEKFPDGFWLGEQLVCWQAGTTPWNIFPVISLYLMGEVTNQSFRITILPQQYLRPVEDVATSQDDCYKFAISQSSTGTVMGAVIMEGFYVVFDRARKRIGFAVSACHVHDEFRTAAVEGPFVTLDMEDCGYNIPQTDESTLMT

One may read the pIC50 as the negative decadic logarithm of the IC50, by convention in mol/L. On to `Cc1cc(C#N)cnc1C(=O)Nc1ccc(F)c(C2(C)COC(CF)(CF)C(N)=N2)c1` (racemic) [Example 37, 5-Cyano-3-methyl-pyridine-2-carboxylic acid [3-(5-amino-6,6-bis-fluoromethyl-3-methyl-3,6-dihydro-2H-[1,4]oxazin-3-yl)-4-fluoro-phenyl]-amide], for which, in experiment [1], the pIC50 was 8.40.
Turning to `COCc1cc(Cl)cnc1C(=O)Nc1ccc(F)c([C@]2(C(F)F)COCC(N)=N2)c1` [Example 1, 5-Chloro-3-methoxymethyl-pyridine-2-carboxylic acid [3-((R)-5-amino-3-difluoromethyl-3,6-dihydro-2H-[1,4]oxazin-3-yl)-4-fluoro-phenyl]-amide], the values for the pIC50 in experiment [2] and in experiment [1] were 7.74 and 8.22, respectively.
The matching figures for `N#Cc1cnc(C(=O)Nc2ccc(F)c([C@]3(C(F)F)COCC(N)=N3)c2)c(Cl)c1` [Example 2, 3-Chloro-5-cyano-pyridine-2-carboxylic acid [3-((R)-5-amino-3-difluoromethyl-3,6-dihydro-2H-[1,4]oxazin-3-yl)-4-fluoro-phenyl]-amide]: 7.49 and 7.96.
For `[2H]C([2H])([2H])Oc1cnc(C(=O)Nc2ccc(F)c([C@]3(C(F)F)COCC(N)=N3)c2)c(N)n1` [Example 3, 3-Amino-5-tris-deutero-methoxy-pyrazine-2-carboxylic acid [3-((R)-5-amino-3-difluoromethyl-3,6-dihydro-2H-[1,4]oxazin-3-yl)-4-fluoro-phenyl]-amide], the pIC50 is 7.60 in experiment [2] and 8.05 in experiment [1].
The corresponding values for `C#CCOc1cnc(C(=O)Nc2ccc(F)c([C@]3(C(F)F)COCC(N)=N3)c2)c(N)n1` [Example 4, 3-Amino-5-prop-2-ynyloxy-pyrazine-2-carboxylic acid [3-((R)-5-amino-3-difluoromethyl-3,6-dihydro-2H-[1,4]oxazin-3-yl)-4-fluoro-phenyl]-amide] are 8.70 and 9.00.
As for `NC1=N[C@@](c2cc(NC(=O)c3ccc4c(Cl)c[nH]c4n3)ccc2F)(C(F)F)COC1` [Example 5, 3-Chloro-1H-pyrrolo[2,3-b]pyridine-6-carboxylic acid [3-((R)-5-amino-3-difIuoromethyl-3,6-dihydro-2H-[1,4]oxazin-3-yl)-4-fluoro-phenyl]-amide], the negative logarithm of the IC50 (pIC50) in experiment [2] was 7.92; in experiment [1], 7.85.
The matching figures for `NC1=N[C@@](c2cc(NC(=O)c3ncc(C(F)F)nc3N)ccc2F)(C(F)F)COC1` [Example 6, 3-Amino-5-difluoromethyl-pyrazine-2-carboxylic acid [3-((R)-5-amino-3-difluoromethyl-3,6-dihydro-2H-[1,4]oxazin-3-yl)-4-fluoro-phenyl]-amide]: 7.60 and 8.10.
The matching figures for `COc1cnc(C(=O)Nc2ccc(F)c([C@]3(C(F)F)COCC(N)=N3)c2)c(C)c1` [Example 7, 5-Methoxy-3-methyl-pyridine-2-carboxylic acid [3-((R)-5-amino-3-difluoromethyl-3,6-dihydro-2H-[1,4]oxazin-3-yl)-4-fluoro-phenyl]-amide hydrochloride]: 6.89 and 7.96.
For the compound `Cc1cc(C(F)F)cnc1C(=O)Nc1ccc(F)c([C@]2(C(F)F)COCC(N)=N2)c1` [Example 8, 5-Difluoromethyl-3-methyl-pyridine-2-carboxylic acid [3-((R)-5-amino-3-difluoromethyl-3,6-dihydro-2H-[1,4]oxazin-3-yl)-4-fluoro-phenyl]-amide hydrochloride], the pIC50 in experiment [2] was 7.27; in experiment [1], 8.10.
The corresponding values for `[2H]C([2H])([2H])OCc1cc(F)cnc1C(=O)Nc1ccc(F)c([C@]2(C(F)F)COCC(N)=N2)c1` [Example 9, 5-Fluoro-3-trideuteromethoxymethyl-pyridine-2-carboxylic acid [3-((R)-5-amino-3-difluoromethyl-3,6-dihydro-2H-[1,4]oxazin-3-yl)-4-fluoro-phenyl]-amide] are 6.96 and 7.44.
The corresponding values for `[2H]C([2H])([2H])OCc1cc(OC([2H])([2H])[2H])cnc1C(=O)Nc1ccc(F)c([C@]2(C(F)F)COCC(N)=N2)c1` [Example 10, 5-Trideuteromethoxy-3-trideuteromethoxymethyl-pyridine-2-carboxylic acid [3-((R)-5-amino-3-difluoromethyl-3,6-dihydro-2H-[1,4]oxazin-3-yl)-4-fluoro-phenyl]-amide] are 6.72 and 7.49.
Consider `N#Cc1cnc(C(=O)Nc2ccc(F)c([C@]3(C(F)F)COCC(N)=N3)c2)c(N)c1` [Example 11, 3-Amino-5-cyano-pyridine-2-carboxylic acid [3-((R)-5-amino-3-difluoromethyl-3,6-dihydro-2H-[1,4]oxazin-3-yl)-4-fluoro-phenyl]-amide], for which the pIC50 was 7.74 in experiment [2] and 8.30 in experiment [1].
The matching figures for `NC1=N[C@@](c2cc(NC(=O)c3ncc(C(F)F)cc3N)ccc2F)(C(F)F)COC1` [Example 12, 3-Amino-5-difluoromethyl-pyridine-2-carboxylic acid [3-((R)-5-amino-3-difluoromethyl-3,6-dihydro-2H-[1,4]oxazin-3-yl)-4-fluorophenyl]-amide]: 7.42 and 8.00.
In the case of `[2H]C([2H])([2H])Oc1cnc(C(=O)Nc2ccc(F)c([C@]3(C(F)F)COCC(N)=N3)c2)c(C)c1` [Example 13, 5-Trideuteromethoxy-3-methyl-pyridine-2-carboxylic acid [3-((R)-5-amino-3-difluoromethyl-3,6-dihydro-2H-[1,4]oxazin-3-yl)-4-fluoro-phenyl]-amide], the pIC50 was 6.96 in experiment [2] and 7.66 in experiment [1].
The corresponding values for `Cc1cc(C#N)cnc1C(=O)Nc1cc(F)c(F)c([C@]2(C(F)F)COCC(N)=N2)c1` [Example 14, 5-Cyano-3-methyl-pyridine-2-carboxylic acid [3-((R)-5-amino-3-difluoromethyl-3,6-dihydro-2H-[1,4]oxazin-3-yl)-4,5-difluoro-phenyl]-amide] are 7.70 and 8.05.
The matching figures for `[2H]C([2H])([2H])Oc1cnc(C(=O)Nc2cc(F)c(F)c([C@]3(C(F)F)COCC(N)=N3)c2)c(Cl)c1` [Example 15, 3-Chloro-5-trideuteromethoxy-pyridine-2-carboxylic acid [3-((R)-5-amino-3-difluoromethyl-3,6-dihydro-2H-[1,4]oxazin-3-yl)-4,5-difluoro-phenyl]-amide]: 7.49 and 7.68.
Turning to `[2H]c1nc(C(=O)Nc2cc(F)c(F)c([C@]3(C(F)F)COCC(N)=N3)c2)c(C([2H])([2H])[2H])c([2H])c1Cl` [Example 16, 4,6-Dideutero-5-chloro-3-trideuteromethyl-pyridine-2-carboxylic acid [3-((R)-5-amino-3-difluoromethyl-3,6-dihydro-2H-[1,4]oxazin-3-yl)-4,5-difluoro-phenyl]-amide], the pIC50 in experiment [2] and in experiment [1] was 7.85 in each case.
Consider `Cc1cc(F)cnc1C(=O)Nc1ccc(F)c([C@]2(C)CO[C@@](C)(C(F)(F)F)C(N)=N2)c1` [Example 35, 5-Fluoro-3-methyl-pyridine-2-carboxylic acid [3-((3R,6R)-5-amino-3,6-dimethyl-6-trifluoro-methyl-3,6-dihydro-2H-[1,4]oxazin-3-yl)-4-fluoro-phenyl]-amide], for which the pIC50 in experiment [1] is 7.06.

For the origin of these results see US20130281449A1, “Oxazine Derivatives and their Use in the Treatment of Neurological Disorders” (NOVARTIS AG, priority 2011, published 2013).
